Where “and” joins values, the source holds several entries; their conditions need not be identical. Identical values can stand only once.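 A five-concentration, 48-hour dose response in 96-well plates underlies each endpoint, interpolated linearly between surrounding concentrations. Abbreviation: GI50, concentration required for 50% inhibition of growth. At the TGI there is no net growth.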
Tests used:
Experiment in all cases: NCI-60 cell line screen, 48 h
HOP-92 NSCLC = test system: HOP-92 NSCLC
CAKI-1 renal = test system: CAKI-1 renal
LOX IMVI melanoma = test system: LOX IMVI melanoma
SR leukemia = test system: SR leukemia
NCI-H460 lung = test system: NCI-H460 lung
SK-MEL-5 melanoma = test system: SK-MEL-5 melanoma
CCRF-CEM leukemia = test system: CCRF-CEM leukemia
TK-10 renal = test system: TK-10 renal
SF-268 CNS = test system: SF-268 CNS
NCI-H226 lung = test system: NCI-H226 lung

Compound | GI50 (HOP-92 NSCLC) [nM] | TGI (HOP-92 NSCLC) | GI50 (CAKI-1 renal) [nM] | TGI (CAKI-1 renal) | GI50 (LOX IMVI melanoma) | TGI (LOX IMVI melanoma) | GI50 (SR leukemia) | TGI (SR leukemia) | GI50 (NCI-H460 lung) | TGI (NCI-H460 lung) | GI50 (SK-MEL-5 melanoma) | TGI (SK-MEL-5 melanoma) | GI50 (CCRF-CEM leukemia) | TGI (CCRF-CEM leukemia) [µM] | GI50 (TK-10 renal) | TGI (TK-10 renal) | GI50 (SF-268 CNS) | TGI (SF-268 CNS) | GI50 (NCI-H226 lung) | TGI (NCI-H226 lung)
C=C1CC2(OC1=O)C(=O)N(CCCN1C(=O)C3(CC(=C)C(=O)O3)c3ccccc31)c1ccccc12 (centres undefined) | 1330 | 2760 nM | 1170 | 2.39 µM | 805 nM | 2100 nM | 330 nM | 1.35 µM | 3.94 µM | 18.5 µM | 4960 nM | 16.7 µM | 416 nM | 2.5 | 1540 nM | 2.98 µM | 3320 nM | 12 µM | 2010 nM | 6.64 µM
O=C(/C=C/c1ccccc1)CC(c1ccccc1)N1CCOCC1 (centres undefined) | 3590 | 18300 nM | 3380 | 12.9 µM | 371 nM | 1360 nM | 2710 nM | 8.92 µM | 15.5 µM | 33.2 µM | 4870 nM | 17.5 µM | 2420 nM | 7.3 | 8630 nM | 24.5 µM | 5070 nM | 19.3 µM | 5390 nM | 24.2 µM
Cc1nc(Nc2n[nH]c3c2CN(C(=O)N[C@H](CN(C)C)c2ccccc2)C3(C)C)c2sccc2n1 |  | 2700 nM and 470 nM |  | > 5.08 µM and 51.9 µM | 8.7 nM and < 11.9 nM | 1380 nM and 2160 nM | 4.32 nM and < 10 nM |  | 0.0132 µM and 0.0223 µM | > 4.07 µM and 10.7 µM | 142 nM and 162 nM | 1.84 µM and 2.26 µM | 286 nM and 400 nM | > 25.1 | 98.2 nM and 491 nM | 3.92 µM and 6.08 µM | 177 nM and 427 nM | > 4.61 µM and 5.23 µM | 341 nM and 302 nM | > 5.18 µM and 5.01 µM
COc1ccc(Nc2nc3ccccc3nc2-c2cccs2)cc1 |  | > 100000 nM |  | > 100 µM |  | > 100000 nM |  | > 100 µM |  | > 100 µM |  | > 100 µM |  | > 100 |  | > 100 µM |  | > 100 µM |  | > 100 µM
CC(=O)[CH-]C(C)=O.[CH2-]C.[CH2-]C.[Tl+3] | > 100000 | > 100000 nM | > 100000 | > 100 µM | > 100000 nM | > 100000 nM | > 100000 nM | > 100 µM | > 100 µM | > 100 µM | > 100000 nM | > 100 µM | > 100000 nM | > 100 | > 100000 nM | > 100 µM | > 100000 nM | > 100 µM | > 100000 nM | > 100 µM
Cc1ncc(C(=O)Nc2ccc(CN3CCN(C)CC3)c(C(F)(F)F)c2)cc1C#Cc1cnc(NC2CC2)c2ncccc12 | 682 | 2080 nM | 1660 | 3.47 µM | 590 nM | 1110 nM | 493 nM | 1.27 µM | 0.623 µM | 1.19 µM | 546 nM | 1.04 µM | 614 nM | 1.46 | 780 nM | 1.31 µM | 755 nM | 1.48 µM | 2100 nM | 6.46 µM
O=C1C(SCCO)=C(SCCO)C(=O)c2ccccc21 |  | 2420 nM |  | 4.24 µM |  | 812 nM |  | 3.74 µM |  | 3.49 µM |  | 0.653 µM |  | 4.8 |  | 3.39 µM |  | 3.21 µM |  | 3.38 µM
C[n+]1c2ccccc2cc2c(CNC(CCCN=C(N)N)C(=O)O)cccc21 (centres undefined) | 327 | 991 nM |  | 2.07 µM |  | 1920 nM | 220 nM | 0.468 µM and 0.582 µM | 3.42 µM | 5 µM and 13.9 µM | 5330 nM | 17.8 µM |  | 0.555 | 967 nM | 2.07 µM and 2.35 µM | 394 nM | 0.846 µM and 1.47 µM | 7760 nM | 7.63 µM and 35.8 µM
C=C(CN1CCc2ccccc2C1)c1ccc(C(=O)Nc2ccccc2N)cc1 | 3370 | 15800 nM | 1200 | 7.69 µM | 316 nM | 1200 nM | 484 nM | > 50 µM | 3.06 µM | > 32 µM | 1610 nM | 6.86 µM | 1960 nM | 12.7 | 5740 nM | 14.8 µM | 1870 nM | 9.74 µM | 1490 nM | 9.2 µM
CCCCCCCCCCCC[n+]1ccccc1 (tested in a mixture with another compound) | 290 | 2430 nM | 1010 | 9.03 µM | 691 nM | 2410 nM | 156 nM | 3.11 µM | 1.33 µM | 3.9 µM | 342 nM | 1.36 µM | 724 nM | 4.53 | 427 nM | 1.86 µM | 1200 nM | 3.44 µM | 1720 nM | 10.4 µM
CNC(SC)=C1C(=O)OC(C)(C)OC1=O |  | > 100000 nM |  | > 100 µM |  | > 100000 nM |  | > 100 µM |  | > 100 µM |  | > 100 µM |  | > 100 |  | > 100 µM |  | > 100 µM |  | > 100 µM
Cc1ccc2c(c1)Sc1ccc(N=NN(C)C)cc1N2C |  | > 100000 nM |  | > 100 µM |  | > 100000 nM |  | > 100 µM |  | > 100 µM |  | > 100 µM |  | > 100 |  | > 100 µM |  | > 100 µM |  | > 100 µM
O=C/C(=C(/Cl)c1ccc(O)cc1)c1ccccc1 |  | 50700 nM |  | > 56.8 µM |  | 46900 nM |  | > 100 µM |  | > 100 µM |  | 48.9 µM |  | > 100 |  | > 56 µM |  | 77.8 µM |  | > 100 µM

Source: PubChem BioAssay (NCI)
